Data set [1] in a line: Absorption spectra / extinction coefficients. Format: physicochemical. As for the experimental part:
Absorption spectra were recorded in a 1-cm path length cuvette (Hellma, 104.002B-QS) on a SPECORD®-205 spectrometer from Analytik Jena.
The Extinction coefficients of the flourophores fluorescein, 5-carboxyfluorescein (5-CF), 5-carboxy Oregon Green™ (5-COG), 5-amido N-propyl Oregon Green (5-POG; Example 2) and 5-amido N-propyl fluorescein (5-PFA; Example 3) were measured in 0.1 M NaOH solution at pH 12.7.
The extinction coefficients of the pro-fluorophores 5-thiourea N-propyl fluorescein diacetate (5-PFDAT; Example 5), 5-propyl carboxylate fluorescein diacetate (5-PFDAE; Example 8), 5-amido N-propyl fluorescein diacetate (5-PFDA; Example 7), 5-carboxy Oregon Green diacetate (5-COGDA; Example 9), 5-amido N-propyl Oregon Green diacetate (5-POGDA; Example 6) and 5-amido N-propyl Oregon Green acetoxymethylester (5-POGAM; Example 10) were measured in PBS buffer containing 0.6 % glutaraldehyde at pH 7.

The nature of data set [2]: Fluorometric measurements / quantum yield. The settings on record: for Φ (quantum yield): 1 µM in 0.1 M NaOH at pH 12.7, excitation 488 nm, standard fluorescein, n = 3; for λem / λex: 0.1 M NaOH at pH 12.7. Type of data set: physicochemical. The method, then:
Fluorometric measurements were made using fluorescence grade quartz cuvette and FluoroLog®-3 spectrofluorometer from Horiba Jobin Yvon equipped with sample stirring. The quantum yields (QY) of 5-CF, 5-COG, 5-POG and 5-PFA were measured with samples at 1 µM (absorbance 488 nm ≤ 0.2) in 0.1 M NaOH at pH 12.7. Every sample and the standard (fluorescein) was prepared freshly before use. In this study, fluorescein in 0.1 M NaOH at pH 12.7 was the reference system with a known quantum yield (Φ = 0.925).
Quantum yield measurements were done using standard absorption and emission spectrometers. Emission spectra range was between the wavelengths 498 - 600 nm and excitation wavelength was 488 nm for the samples and fluorescein. The refractive indices of the samples and fluorescein solutions were the same since they were prepared in the same buffer. Under these conditions, quantum yields were calculated by using the equation: Φ^i = (F^ifs/F^sfi)*Φ^s [formula]
wherein Φ^i and Φ^s are the photoluminescence QY of the sample and standard (fluorescein), respectively; F^i and F^s are the integrated intensities (areas) of sample and fluorescein spectra, respectively; and fi and fs are the absorption factor of the sample and fluorescein, respectively, with fi or s = 1-10^-Ai or s, wherein A = absorbance.
The same experiment was repeated three times (n = 3).

Data set [3] has as its system Bacillus subtilis (B. subtilis) (ATCC 6633). The data set is described as follows: Bacteria staining test, fluorescence microscopy. Format: cell-based. To be noted: Fig. 3d, comparison between pro-fluorophores. As for the experimental part: (§1) Escherichia coli (E. coli) (ATCC 8739) and Bacillus subtilis (B. subtilis) (ATCC 6633) strains were routinely grown in Luria Bertani (LB) broth or on LB agar plates for 18h at 37 °C. Waterborne environmental bacteria such as Enterobacter cloacae (E. cloacae), Chryseobacterium indologenes (C. indologenes), Pseudomonas aeruginosa (P. aeruginosa), and E. coli (EC18) were purchased from Eurofins™. Environmental bacteria were grown in LB broth or on casein-peptone soymeal-peptone agar plates for 18h at 37 °C.
(§2) For the staining tests, E. coli (ATCC 8739 or EC18), E. cloacae, C. indologenes, P. aeruginosa and B. subtilis were cultivated in Luria-Bertani (LB) broth until exponential phase at 37°C with shaking at 300 rpm revolutions per minutes (rpm). Bacteria were harvested and washed in sterile phosphate buffer saline solution (PBS) at pH […] by centrifugation at 10000 rpm for 3 min at room temperature (21 ± 2 °C). Then the bacteria were resuspended in PBS at a concentration of 1·10^9 bacteria/ml. Bacteria concentration was calculated according to the turbidity measure at 660 nm (A660nm=1 correspond to bacterial suspension at ∼ 5·10^8 bacteria/ ml).
(§3) Dead bacterial suspensions at 1·10^9 bacteria/ml (negative controls) of these five species of bacteria were prepared individually by addition of 20 µl of bleach containing 2.6 % active chlorine. Bacteria were treated with bleach solution for 15 min. Dead bacteria were washed twice in sterile PBS by centrifugation at 10000 rpm for 3 min at room temperature. The culturability of the negative controls was assessed by plating 100 µl of bacterial suspension onto LB agar or Caso agar and incubating the plates at 37 °C for 72 h.
(§4) Bacteria (100 µl suspension at 1·10^9 bacteria/ml) were stained with 10 µM or 15 µM of pro-fluorophore (5-CFDA, 5-PFDAE, 5-PFDAT, 5-PFDA, 5-COGDA, 5-POGDA or 5-POGAM) in 200 µl of PBS solution containing 0.6 % of glutaraldehyde. Bacteria were incubated at 37 °C for 10 - 60 min with pro-fluorophore in darkness. After bacterial staining, they were washed and resuspended in 100 µl of PBS as described above.
(§5) Staining of the bacterial suspension was observed under a fluorescent microscope. These bacteria were imaged with a Leica DM5500 microscope equipped with FITC filter. […] Images were collected with a 100x objective. Fluorescence intensity of stained bacterial suspension was also measured with FluoroLog®-3 (Horiba Jobin Yvon) spectrofluorometer equipped with sample stirring. Samples were placed in fluorescence grade quartz cuvette having a volume of 1 ml. The excitation wavelength used was 488 nm and emission wavelength used was 517 nm. The same experiment was repeated three times (n = 3).

The test system of data set [4] is E. coli (ATCC 8739). Nature of the data set: Labeling of viable or dead E. coli, fluorescence microscopy. Type of data set: cell-based, Escherichia coli. The settings on record: 15 µM, 30 min at 37 °C, Figure 4. As for the experimental part: as §1, §2, §3, §4, §5
The pro-fluorophores according to the present invention are preferably used to label E. coli cells. Viable or dead E. coli (ATCC 8739) are incubated with these fluorophores and commercial 5-CFDA as described above. […] Glutaraldehyde is added to the incubation solutions to improve the retention of the fluorophores in bacteria.
Bacteria were washed before being imaged with a Leica DM5500 microscope, 100x objective. Scale bars indicate 10 µm.

Data set [5] is described as follows: Short-term chemical stability (spontaneous fluorescence generation) in aqueous buffer. To be noted: for chemical stability in aqueous solution (in words): PBS solution containing 0.6 % glutaraldehyde, 37°C. Format: physicochemical. The method, then: The short-term chemical stability of the pro-fluorophores of the present invention in an aqueous buffer was evaluated by fluorometric measurement analysis after several minutes of storage at 37°C.
Each pro-fluorophore (5-CFDA, 5-PFDAE, 5-PFDAT, 5-PFDA, 5-COGDA, 5-POGDA, 5-POGAM) was dissolved in dimethylsulfoxide (DMSO) in order to prepare a 10 mM stock solution. Short-term stability studies (0-60 min) were performed in the absence of light at 37°C. The pro-fluorophore stock solutions were diluted into a PBS solution containing 0.6 % of glutaraldehyde (pH ∼7). The pro-fuorophore final concentration was 15 µM. Samples were stored in a fluorescence grade quartz cuvette having a volume of 1 ml. Fluorescence emission spectra between 500 and 540 nm were recorded every 10 minutes. The excitation wavelength used was 488 nm. Fluorometric measurement were made with a FluoroLog®-3. (Horiba Jobin Yvon) spectrofluorometer equipped with sample stirring. The same experiment was repeated three times (n = 3).
Thus, the slope of the straight line corresponds to the speed of spontaneous fluorescence generation.

In data set [6] the test system is E. coli (ATCC 8739). The data set is described as follows: Labeling of viable E. coli, fluorescence intensity by spectrofluorometer. Format: cell-based, Escherichia coli. The method, then: as §2, §3
[…] Bacteria were incubated at 37 °C for 10 - 60 min with pro-fluorophore in darkness. After bacterial staining, they were washed and resuspended in 100 µl of PBS as described above.
as §5
Viable or dead E. coli (ATCC 8739) were incubated with different pro-fluorophores (10 - 15 µM) for 30 min at 37 °C. After washes, fluorescence of the E. coli suspension was measured with a FluoroLog®-3 spectrofluorometer (excitation wavelength: 488 nm, emission wavelength: 517 nm). Relative rates of viable E. coli fluorescence intensity were calculated by normalizing the difference of viable E. coli fluorescence intensity and dead E. coli fluorescence intensity with 5-CFDA staining.
Viable E. coli (ATCC 8739) were incubated with different pro-fluorophores (15 µM) at 37 °C for 10 - 60 min. After washes, E. coli fluorescence suspension was measured with FluoroLog®-3 spectrofluorometer (excitation wavelength: 488 nm, emission wavelength: 517 nm).

Setting [7] is: fluorophores, 0.1 M NaOH solution at pH 12.7.
Setting [8] is: pro-fluorophores, PBS buffer containing 0.6 % glutaraldehyde at pH 7.

In the case of `O=C(O)c1ccc2c(c1)C(=O)OC21c2ccc(O)cc2Oc2cc(O)ccc21` [Example 5-CF, 5-carboxyfluorescein, reference compound], in data set [1] (setting [7]), the “E (extinction coefficient)” value was 76474 ± 4009 M⁻¹ cm⁻¹ and the λAbs max was found to be 493 nm. For the same compound, in data set [2], the “Φ (quantum yield)” value turned out to be 0.963 ± 0.004, the λem was 517 ± 0.6 nm and the λex was 491 ± 0.7 nm.
Take `CC(=O)Oc1ccc2c(c1)Oc1cc(OC(C)=O)ccc1C21OC(=O)c2cc(C(=O)O)ccc21` [Example 5-CFDA, 5-carboxyfluorescein diacetate, reference compound]: in data set [3], the “fluorescence intensity of the stained B. subtilis” value was “higher than the staining with 5-POGDA and 5-POGAM”.
As for `O=C(O)c1ccc2c(c1)C(=O)OC21c2cc(F)c(O)cc2Oc2cc(O)c(F)cc21` [Example 5-COG, 5-carboxy Oregon Green™, reference compound], in data set [1] (setting [7]), the “E (extinction coefficient)” value stood at 83136 ± 4452 M⁻¹ cm⁻¹ and the λAbs max is 493 nm. Moreover, in data set [2], the “Φ (quantum yield)” value is 0,912 ± 0.011, the λem amounted to 517 ± 0.4 nm and the λex came to 491 ± 1.2 nm.
As to `CC(=O)Oc1cc2c(cc1F)C1(OC(=O)c3cc(C(=O)O)ccc31)c1cc(F)c(OC(C)=O)cc1O2` [Example 5-COGDA, 3',6'-diacetoxy-2',7'-difluoro-3-oxo-3H-spiro[isobenzofuran-1,9'-xanthene]-5-carboxylic acid], the “staining of viable E. coli (microscopy)” value in the data set with E. coli (ATCC 8739) [4] is “specifically stained with high fluorescence intensity”. Further, in data set [1] (setting [8]), the “E (extinction coefficient)” value was determined as 6979 ± 282 M⁻¹ cm⁻¹ and the λAbs max is reported as 300 nm. In addition, in data set [5], the “chemical stability in aqueous solution (in words)” value is “less stable”. In addition, the “relative speed of spontaneous fluorescence generation (spontaneous hydrolysis)” value in data set [5] (relative to 5-CFDA, 15 µM, PBS containing 0.6 % glutaraldehyde, pH ~7, 37°C, 0-60 min) is “eight times higher”. Moreover, in the data set with E. coli (ATCC 8739) [6] (10 - 15 µM, 30 min at 37 °C, excitation 488 nm, emission 517 nm, Figure 5), the “viable E. coli fluorescence intensity relative to 5-CFDA staining” value was “between two and three times higher”.
On to `CCCNC(=O)c1ccc2c(c1)C(=O)OC21c2ccc(O)cc2Oc2cc(O)ccc21` [Example 5-PFA, 3',6'-dihydroxy-3-oxo-N-propyl-3H-spiro[isobenzofuran-1,9'-xanthene]-5-carboxamide], for which, in data set [1] (setting [7]), the “E (extinction coefficient)” value worked out at 73490 ± 8454 M⁻¹ cm⁻¹ and the λAbs max is on record as 495 nm. Also, in data set [2], the “Φ (quantum yield)” value was 0,835 ± 0.002, the λem worked out at 518 ± 0.4 nm and the λex amounted to 493 ± 0.3 nm.
Turning to `CCCNC(=O)c1ccc2c(c1)C(=O)OC21c2ccc(OC(C)=O)cc2Oc2cc(OC(C)=O)ccc21` [Example 5-PFDA, 3-oxo-5-(propylcarbamoyl)-3H-spiro[isobenzofuran-1,9'-xanthene]-3',6'-diyl diacetate], in the data set on E. coli (ATCC 8739) [4], the “staining of viable E. coli (microscopy)” value is on record as “specifically stained with high fluorescence intensity”. Besides, in data set [1] (setting [8]), the “E (extinction coefficient)” value is 9284 ± 758 M⁻¹ cm⁻¹ and the λAbs max was found to be 291 nm. The “viable E. coli fluorescence intensity compared with 5-CFDA over incubation time” value in the data set with E. coli (ATCC 8739) [6] (15 µM, 37 °C, incubation for 10 to 60 min, Figure 6) was “higher fluorescence intensity than incubation with 5-CFDA”.
Take `CCCOC(=O)c1ccc2c(c1)C(=O)OC21c2ccc(OC(C)=O)cc2Oc2cc(OC(C)=O)ccc21` [Example 5-PFDAE, 3-oxo-5-(propoxycarbonyl)-3H-spiro[isobenzofuran-1,9'-xanthene]-3',6'-diyl diacetate]: in the data set on E. coli (ATCC 8739) [4], the “fluorescence signal of dead E. coli (microscopy)” value was “No fluorescence signal of dead bacteria was detected” and the “staining of viable E. coli (microscopy)” value is given as “weaker green fluorescence, as compared to 5-CFDA staining”. Moreover, in data set [1] (setting [8]), the “E (extinction coefficient)” value amounted to 7903 ± 761 M⁻¹ cm⁻¹ and the λAbs max is on record as 295 nm. For the same compound, in data set [5], the “chemical stability in aqueous solution (in words)” value is given as “remarkable stability”.
For the compound `CCCNC(=S)Nc1ccc2c(c1)C(=O)OC21c2ccc(OC(C)=O)cc2Oc2cc(OC(C)=O)ccc21` [Example 5-PFDAT, 3-oxo-5-(3-propylthioureido)-3H-spiro[isobenzofuran-1,0'-xanthene]-3',6'-diyl diacetate], in the data set with E. coli (ATCC 8739) [4], the “fluorescence signal of dead E. coli (microscopy)” value is “become fluorescent” and the “staining of viable E. coli (microscopy)” value is given as “become fluorescent”.
As to `CCCNC(=O)c1ccc2c(c1)C(=O)OC21c2cc(F)c(O)cc2Oc2cc(O)c(F)cc21` [Example 5-POG, 2',7'-difluoro-3',6'-dihydroxy-3-oxo-N-propyl-3H-spiro[isobenzofuran-1,9'-xanthene]-5-carboxamide], in data set [1] (setting [7]), the “E (extinction coefficient)” value came to 74835 ± 4762 M⁻¹ cm⁻¹ and the λAbs max was 495 nm. Also, in data set [2], the “Φ (quantum yield)” value is 0,902 ± 0.013, the λem turned out to be 518 ± 1.1 nm and the λex is on record as 493 ± 0.6 nm.

The record behind these values is EP3050886A1, “Fluorescent dyes and dye precursors” (Bürkert Werke GmbH, priority 2015, dated 2016).
